Source: US20140005163A1 (NOVARTIS AG, priority 2010, published 2014)

How the values were obtained:
[1] = target: T1, PI3K alpha (Homo sapiens, UniProt P42336); test: PI3K alpha kinase assay (Kinase-Glo luminescence); assay type: biochemical
T1 construct: p85(iSH2) fusion partner (see partner chain) (N); His tag (C); made in house; host or cells: baculovirus; Tn5 (Trichoplusia ni) or TiniPro insect cells
Summary of the method: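 PI3Kα construct EMV B1075 (10 nM final) was preincubated with 10 μg/mL phosphatidylinositol in 10 mM Tris-HCl pH 7.5, 3 mM MgCl2, 50 mM NaCl, 0.05% CHAPS, 1 mM DTT. Reaction started with 1 μM ATP, 60 min at room temperature; remaining ATP measured by Kinase-Glo luminescence. IC50 from 4-parameter logistic fit of 8-point titrations.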

[2] = target: T2, PI3K beta (Homo sapiens, UniProt P42338); test: PI3K beta kinase assay (Kinase-Glo luminescence); assay type: biochemical
T2 construct: for the full-length p110-b subunit are generated and fused by overlapping PCR; p85(iSH2) fusion partner (see partner chain) (N); His tag (C); made in house; host or cells: baculovirus; Tn5 (Trichoplusia ni) or TiniPro insect cells
Summary of the method: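 Kinase-Glo luminescence after a 60 min room-temperature reaction gives remaining ATP. The reaction holds 25 nM p85(iSH2)-p110β full-length His-tagged construct, 1 μM ATP, 10 μg/mL PI, and eight compound concentrations at 0.45% DMSO final. IC50 values come from a four-parameter logistic fit.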

[3] = target: T3, PI3K delta (Homo sapiens, UniProt O00329); test: PI3K delta kinase assay (Kinase-Glo luminescence); assay type: biochemical
T3 construct: for the full-length p110-d subunit are generated and fused by overlapping PCR; p85(iSH2) fusion partner (see partner chain) (N); His tag (C); made in house; host or cells: baculovirus; Tn5 (Trichoplusia ni) or TiniPro insect cells
Summary of the method: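 Recombinant p85(iSH2)-Gly linker-p110δ full-length construct (BV1060, C-terminal His tag) was used at 10 nM with 10 μg/mL phosphatidylinositol and 1 μM ATP in 10 mM Tris-HCl pH 7.5, 3 mM MgCl2, 50 mM NaCl, 0.05% CHAPS, 1 mM DTT. After 60 min at room temperature, remaining ATP was measured by Kinase-Glo luminescence.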

[4] = system: PKB Ser473 phosphorylation in Rat1-myr-HA-p110 alpha cells; test: Reverse protein array assay, PKB Ser473 phosphorylation in Rat1-myr-p110 alpha cells; assay type: cell-based; conditions: 0.5 h, pAkt Ser473, 30 minutes compound incubation, read-out: p-PKB IC50
Summary of the method: (§1)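 After at least 20 h of culture, the p110 isoform-transfected Rat1 lines receive compound in an 8-step dilution series, keeping DMSO at 0.2%, for 30 minutes. Cells are then lysed and lysates arrayed on chips for fluorescence detection of Ser473-phosphorylated PKB.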

[5] = system: PKB Ser473 phosphorylation in Rat1-myr-HA-p110 beta cells; test: Reverse protein array assay, PKB Ser473 phosphorylation in Rat1-myr-p110 beta cells; assay type: cell-based; conditions: 0.5 h, pAkt Ser473, 30 minutes incubation, read-out: p-PKB IC50
Summary of the method: as §1

[6] = system: PKB Ser473 phosphorylation in Rat1-myr-HA-p110 delta cells; test: Reverse protein array assay, PKB Ser473 phosphorylation in Rat1-myr-p110 delta cells; assay type: cell-based; conditions: read-out: p-PKB IC50
Summary of the method: as §1

T1 sequence (P42336 with tags, fused parts or gaps limits assumed): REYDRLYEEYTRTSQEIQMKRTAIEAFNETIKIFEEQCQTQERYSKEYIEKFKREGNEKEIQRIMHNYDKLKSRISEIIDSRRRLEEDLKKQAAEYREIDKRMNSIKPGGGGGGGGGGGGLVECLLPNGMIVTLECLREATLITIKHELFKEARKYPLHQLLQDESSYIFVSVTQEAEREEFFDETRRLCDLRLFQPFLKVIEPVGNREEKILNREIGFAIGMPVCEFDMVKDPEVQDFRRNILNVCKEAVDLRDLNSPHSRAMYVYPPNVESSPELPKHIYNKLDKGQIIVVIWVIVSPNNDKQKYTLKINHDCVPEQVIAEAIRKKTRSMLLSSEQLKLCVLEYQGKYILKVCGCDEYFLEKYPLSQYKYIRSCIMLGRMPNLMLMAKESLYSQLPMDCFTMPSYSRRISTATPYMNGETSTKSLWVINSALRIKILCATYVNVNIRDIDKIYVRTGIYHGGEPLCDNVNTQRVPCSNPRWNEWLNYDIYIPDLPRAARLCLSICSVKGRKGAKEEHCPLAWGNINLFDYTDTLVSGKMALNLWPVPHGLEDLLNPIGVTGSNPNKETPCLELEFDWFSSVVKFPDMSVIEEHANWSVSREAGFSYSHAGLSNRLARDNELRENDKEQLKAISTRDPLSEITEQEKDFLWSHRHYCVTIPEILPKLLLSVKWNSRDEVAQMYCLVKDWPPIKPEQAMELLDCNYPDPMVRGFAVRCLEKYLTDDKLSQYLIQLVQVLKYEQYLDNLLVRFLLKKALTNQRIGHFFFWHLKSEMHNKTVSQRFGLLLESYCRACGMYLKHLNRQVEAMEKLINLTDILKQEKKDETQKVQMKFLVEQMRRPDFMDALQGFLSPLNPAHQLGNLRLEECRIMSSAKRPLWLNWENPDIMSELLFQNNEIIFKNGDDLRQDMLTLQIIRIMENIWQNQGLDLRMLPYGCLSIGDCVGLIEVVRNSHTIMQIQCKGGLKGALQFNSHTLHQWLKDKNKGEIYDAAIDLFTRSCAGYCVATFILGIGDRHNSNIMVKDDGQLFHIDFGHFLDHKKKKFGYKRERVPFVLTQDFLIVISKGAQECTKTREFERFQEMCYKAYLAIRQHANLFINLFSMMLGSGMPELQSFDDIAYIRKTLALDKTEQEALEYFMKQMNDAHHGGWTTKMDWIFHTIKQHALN
T3 sequence (O00329 with tags, fused parts or gaps limits assumed): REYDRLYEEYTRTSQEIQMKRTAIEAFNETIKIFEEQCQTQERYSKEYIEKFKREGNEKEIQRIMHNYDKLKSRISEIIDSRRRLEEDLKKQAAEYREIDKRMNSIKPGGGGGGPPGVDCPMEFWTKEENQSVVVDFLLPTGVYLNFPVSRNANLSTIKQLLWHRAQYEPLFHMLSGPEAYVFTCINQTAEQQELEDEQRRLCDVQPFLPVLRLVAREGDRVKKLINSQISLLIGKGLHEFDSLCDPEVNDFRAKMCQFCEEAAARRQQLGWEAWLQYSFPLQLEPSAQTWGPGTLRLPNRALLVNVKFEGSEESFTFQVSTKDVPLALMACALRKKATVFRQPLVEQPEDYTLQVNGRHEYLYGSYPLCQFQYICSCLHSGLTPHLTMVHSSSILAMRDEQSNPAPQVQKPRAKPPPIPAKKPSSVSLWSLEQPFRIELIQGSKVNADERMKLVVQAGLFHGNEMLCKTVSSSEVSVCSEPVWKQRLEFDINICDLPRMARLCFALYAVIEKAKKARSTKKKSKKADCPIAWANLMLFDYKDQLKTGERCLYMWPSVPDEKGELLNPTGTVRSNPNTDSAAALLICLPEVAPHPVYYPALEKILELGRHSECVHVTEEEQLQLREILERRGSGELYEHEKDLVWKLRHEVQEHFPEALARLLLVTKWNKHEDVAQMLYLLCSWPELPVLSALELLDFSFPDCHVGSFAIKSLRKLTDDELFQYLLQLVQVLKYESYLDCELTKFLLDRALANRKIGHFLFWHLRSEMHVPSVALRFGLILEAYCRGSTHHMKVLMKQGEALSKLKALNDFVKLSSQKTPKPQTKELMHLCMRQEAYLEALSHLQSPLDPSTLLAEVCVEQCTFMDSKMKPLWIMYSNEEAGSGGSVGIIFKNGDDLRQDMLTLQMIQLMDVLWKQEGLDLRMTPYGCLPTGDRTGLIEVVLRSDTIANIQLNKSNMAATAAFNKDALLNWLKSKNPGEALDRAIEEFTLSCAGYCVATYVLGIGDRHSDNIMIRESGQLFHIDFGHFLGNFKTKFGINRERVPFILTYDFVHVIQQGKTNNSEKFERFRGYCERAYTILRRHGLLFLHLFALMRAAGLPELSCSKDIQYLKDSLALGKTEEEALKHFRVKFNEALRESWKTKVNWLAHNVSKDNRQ
T2 sequence (P42338 with tags, fused parts or gaps limits assumed): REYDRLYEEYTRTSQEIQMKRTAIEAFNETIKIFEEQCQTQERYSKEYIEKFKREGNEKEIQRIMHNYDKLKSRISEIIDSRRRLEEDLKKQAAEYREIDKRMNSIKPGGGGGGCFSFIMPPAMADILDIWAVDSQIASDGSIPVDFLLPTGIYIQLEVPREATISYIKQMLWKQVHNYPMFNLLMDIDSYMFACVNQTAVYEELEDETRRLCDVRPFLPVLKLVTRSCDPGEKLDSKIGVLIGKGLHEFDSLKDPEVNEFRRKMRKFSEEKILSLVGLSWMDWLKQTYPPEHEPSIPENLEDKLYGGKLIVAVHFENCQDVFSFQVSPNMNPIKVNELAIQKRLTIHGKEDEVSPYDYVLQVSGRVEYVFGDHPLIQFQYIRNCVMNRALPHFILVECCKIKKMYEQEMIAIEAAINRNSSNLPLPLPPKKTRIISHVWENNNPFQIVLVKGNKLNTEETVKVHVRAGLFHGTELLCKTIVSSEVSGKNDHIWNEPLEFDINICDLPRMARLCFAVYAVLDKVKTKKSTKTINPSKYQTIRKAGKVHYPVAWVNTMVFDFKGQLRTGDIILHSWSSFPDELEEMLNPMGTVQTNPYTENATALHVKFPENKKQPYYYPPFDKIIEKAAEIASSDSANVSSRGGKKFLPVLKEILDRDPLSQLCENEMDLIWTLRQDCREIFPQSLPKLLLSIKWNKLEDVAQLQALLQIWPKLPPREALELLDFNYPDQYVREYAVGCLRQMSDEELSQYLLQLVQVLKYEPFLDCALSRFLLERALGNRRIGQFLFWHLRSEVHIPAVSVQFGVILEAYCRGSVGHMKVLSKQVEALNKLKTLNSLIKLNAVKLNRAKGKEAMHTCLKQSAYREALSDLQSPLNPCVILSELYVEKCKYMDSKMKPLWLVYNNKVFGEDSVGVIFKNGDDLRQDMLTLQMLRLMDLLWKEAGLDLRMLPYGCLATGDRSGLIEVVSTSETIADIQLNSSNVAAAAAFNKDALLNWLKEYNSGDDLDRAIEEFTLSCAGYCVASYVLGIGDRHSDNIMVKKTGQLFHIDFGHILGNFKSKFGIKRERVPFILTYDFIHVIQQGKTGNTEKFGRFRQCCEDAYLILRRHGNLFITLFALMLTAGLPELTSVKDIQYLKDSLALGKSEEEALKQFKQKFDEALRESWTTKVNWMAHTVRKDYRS

| IC50 [1] | IC50 [2] | IC50 [3] | IC50 [4] | IC50 [5] | IC50 [6] | Structure (SMILES) |
| --- | --- | --- | --- | --- | --- | --- |
| 10 nM | 41 nM | 7 nM | 19 nM | 32 nM | 45 nM | CCn1cc(-n2c(=O)n(C)c3cnc4ccc(-c5cncc(C(C)(C)C#N)c5)cc4c32)c(C)n1 [Example 220.2, 2-{5-[1-(1-Ethyl-3-methyl-1H-pyrazol-4-yl)-3-methyl-2-oxo-2,3-dihydro-1H-imidazo[4,5-c]quinolin-8-yl]-pyridin-3-yl}-2-methyl-propionitrile] |
| 27 nM | 50 nM | 9 nM | 9 nM | 13 nM | 42 nM | CCNc1ncc(-c2ccc3ncc4c(c3c2)n(-c2cn(C)nc2C)c(=O)n4C)cc1C(F)(F)F [Example 145.2, 1-(1,3-Dimethyl-1H-pyrazol-4-yl)-8-(6-ethylamino-5-trifluoromethyl-pyridin-3-yl)-3-methyl-1,3-dihydro-imidazo[4,5-c]quinolin-2-one] |
| 6 nM | 5 nM | 4 nM | 9 nM | 14 nM | 12 nM | CC(C)Oc1cncc(-c2ccc3ncc4c(c3c2)n(-c2cn(C)nc2Cl)c(=O)n4C)c1 [Example 58.2, 1-(3-Chloro-1-methyl-1H-pyrazol-4-yl)-8-(5-isopropoxy-pyridin-3-yl)-3-methyl-1,3-dihydro-imidazo[4,5-c]quinolin-2-one] |
| 71 nM | 287 nM | 26 nM | 136 nM | 220 nM | 240 nM | CCNC(=O)c1cc(-c2ccc3ncc4c(c3c2)n(-c2cn(C(C)C)nc2C)c(=O)n4C)cnc1N [Example 227, 2-Amino-N-ethyl-5-[1-(1-isopropyl-3-methyl-1H-pyrazol-4-yl)-3-methyl-2-oxo-2,3-dihydro-1H-imidazo[4,5-c]quinolin-8-yl]-nicotinamide] |
| 27 nM | 79 nM | 8 nM | 7 nM | 6 nM | 16 nM | Cc1nn(C(C)C)cc1-n1c(=O)n(C)c2cnc3ccc(-c4cnc(Cl)c(N)c4)cc3c21 [Example 152.1, 8-(5-Amino-6-chloro-pyridin-3-yl)-1-(1-isopropyl-3-methyl-1H-pyrazol-4-yl)-3-methyl-1,3-dihydro-imidazo[4,5-c]quinolin-2-one] |
| 5 nM | 24 nM | 8 nM | 7 nM | 8 nM | 22 nM | Cc1nn(C)cc1-n1c(=O)n(C)c2cnc3ccc(-c4ccc(-c5ncc[nH]5)cc4)cc3c21 [Example 77, 1-(1,3-Dimethyl-1H-pyrazol-4-yl)-8-[4-(1H-imidazol-2-yl)-phenyl]-3-methyl-1,3-dihydro-imidazo[4,5-c]quinolin-2-one] |
| 8 nM | 51 nM | 7 nM | 9 nM | 15 nM | 24 nM | CN(C)c1ncc(-c2ccc3ncc4c(c3c2)n(-c2cn(C)nc2Cl)c(=O)n4C)cn1 [Example 6.3, 1-(3-Chloro-1-methyl-1H-pyrazol-4-yl)-8-(2-dimethylamino-pyrimidin-5-yl)-3-methyl-1,3-dihydro-imidazo[4,5-c]quinolin-2-one] |
| 55 nM | 395 nM | 23 nM | 268 nM | 370 nM | 607 nM | Cc1nn(C(C)C)cc1-n1c(=O)n(C)c2cnc3ccc(-c4cnc5c(c4)COC(=O)N5C)cc3c21 [Example 170, 1-(1-Isopropyl-3-methyl-1H-pyrazol-4-yl)-3-methyl-8-(1-methyl-2-oxo-1,4-dihydro-2H-pyrido[2,3-d][1,3]oxazin-6-yl)-1,3-dihydro-imidazo[4,5-c]quinolin-2-one] |
| 18 nM | 184 nM | 147 nM | < 5 nM | < 5 nM | 9 nM | CNc1ccc(-c2ccc3ncc4c(c3c2)n(-c2cn(C(C)C)nc2C)c(=S)n4C)cn1 [Example 241, 1-(1-isopropyl-3-methyl-1H-pyrazol-4-yl)-3-methyl-8-(6-(methylamino)pyridin-3-yl)-1H-imidazo[4,5-c]quinoline-2(3H)-thione] |
| 8 nM | 40 nM | 4 nM | < 5 nM | 12 nM | 12 nM | CNc1ncc(-c2ccc3ncc4c(c3c2)n(-c2cn(C(C)C)nc2C)c(=O)n4C)cc1C(F)(F)F [Example 144.2, 1-(1-Isopropyl-3-methyl-1H-pyrazol-4-yl)-3-methyl-8-(6-methylamino-5-trifluoromethyl-pyridin-3-yl)-1,3-dihydro-imidazo[4,5-c]quinolin-2-one] |
| 11 nM | 17 nM | 11 nM | < 5 nM | 6 nM | 10 nM | COc1ccc(-c2ccc3ncc4c(c3c2)n(-c2cn(C)nc2C)c(=S)n4C)cc1OC [Example 128.2, 8-(3,4-Dimethoxy-phenyl)-1-(1,3-dimethyl-1H-pyrazol-4-yl)-3-methyl-1,3-dihydro-imidazo[4,5-c]quinoline-2-thione] |
| 73 nM | 811 nM | 178 nM | 73 nM | 196 nM | 839 nM | Cc1nn(C)cc1-n1c(=O)n(C)c2cnc3ccc(-c4cccc(NS(C)(=O)=O)c4)cc3c21 [Example 47, N-{3-[1-(1,3-dimethyl-1H-pyrazol-4-yl)-3-methyl-2-oxo-2,3-dihydro-1H-imidazo[4,5-c]quinolin-8-yl]-phenyl}-methanesulfonamide] |
| 11 nM | 35 nM | 22 nM | 5 nM | 27 nM | 127 nM | Cc1nn(C)cc1-n1c(=S)n(C)c2cnc3ccc(-c4cccnc4)cc3c21 [Example 128.1, 1-(1,3-Dimethyl-1H-pyrazol-4-yl)-3-methyl-8-pyridin-3-yl-1,3-dihydro-imidazo[4,5-c]quinoline-2-thione] |
| 39 nM | 154 nM | 77 nM | 44 nM | 284 nM | 314 nM | Cc1nn(C)cc1-n1c(=O)n(C)c2cnc3ccc(-c4cccc(OC(C)C)c4)cc3c21 [Example 82, 1-(1,3-Dimethyl-1H-pyrazol-4-yl)-8-(3-isopropoxy-phenyl)-3-methyl-1,3-dihydro-imidazo[4,5-c]quinolin-2-one] |
